# From patent US9498465B2, “Topical compositions in the form of a gel containing a particular solubilized retinoid” (GALDERMA RESEARCH & DEVELOPMENT, priority 2012, dated 2016)
# Tests used:
# Format in all cases: physicochemical
# [1] = Maximum solubility in hydrophilic excipients, determined by HPLC
# Procedure: In order to produce an aqueous-glycolic gel containing an amount of ethanol of less than 30%, in which compound A is solubilized, pre-formulation studies were carried out in order to reveal the excipients enabling good solubilization and also good stability of the active agent. • (1) List of the hydrophilic excipients or mixture of hydrophilic excipients in which maximum solubility was determined by HPLC: […]
# [2] = Stability of compound A in its principal solvents and cosolvents, determined by HPLC
# [3] = Tests introducing ST-cyclomethicone 5NF: recrystallization of compound A
# Procedure: In order to obtain an acceptable feel for acne (non-greasy, non-tacky) while at the same time keeping good solubility of compound A in the formula, tests introducing ST-cyclomethicone 5 were carried out, in the knowledge that ST-cyclomethicone 5NF is a nonsolvent of compound A and that this addition may therefore cause recrystallization of compound A: […]
compound,measurement,setting,value
"CC(C)(C)c1cc(-c2cc(-c3ccc(C(=O)O)cc3)ccc2OCCO)ccc1N1CCCC1 [Compound A, 3″-tert-butyl-4′-(2-hydroxyethoxy)-4″-pyrrolidin-1-yl[1,1′;3′,1″]terphenyl-4-carboxylic acid]",Maximum solubility as %,[1]; in Arlasolve DMI (Dimethyl Isosorbide),0.4%
same,Maximum solubility as %,[1]; in Benzyl Alcohol,2.3880%
same,Maximum solubility as %,[1]; in Dipropylene Glycol Care (Dipropylene Glycol),0.4%
same,Maximum solubility as %,[1]; in Ethanol 95-96%,0.92%
same,Maximum solubility as %,[1]; in Glycerine (Glycerin),0.002%
same,Maximum solubility as %,[1]; in Hexylene Glycol,0.4%
same,Maximum solubility as %,[1]; in Hydrolite 5P (Pentylene glycol),0.482%
same,Maximum solubility as %,[1]; in PEG 400 (Peg-8),1.52%
same,Maximum solubility as %,[1]; in Pharmasolve (Methyl Pyrolidone),4.84%
same,Maximum solubility as %,[1]; in Phenoxetol (Phenoxyethanol),1.957%
same,Maximum solubility as %,[1]; in Propylene Glycol,0.111%
same,Maximum solubility as %,[1]; in Transcutol (Ethoxy diglycol),4.17%
same,Solubility (in words),[1]; in glycerine,virtually insoluble
same,Stability results,[2]; 0.001% in Hexylene Glycol,Unstable
same,Stability results,[2]; 0.005% in Ethanol 95-96%,Stable
same,Stability results,"[2]; 0.005% in Ethanol 95-96%, listed as compound A",stable
same,Stability results,[2]; 0.01% in Benzyl Alcohol,Unstable
same,Stability results,[2]; 0.03% in Arlasolve DMI (Dimethyl Isosorbide),Unstable
same,Stability results,[2]; 0.03% in Hydrolite 5P (Pentylene glycol),Unstable
same,Stability results,[2]; 0.03% in Pharmasolve (Methyl Pyrolidone),Unstable
same,Stability results,[2]; 0.03% in Transcutol (Ethoxy diglycol),Unstable
same,Stability results,[2]; 0.05% in Phenoxetol (Phenoxyethanol),Stable
same,Stability results,"[2]; 0.05% in Phenoxetol (Phenoxyethanol), listed as compound A",stable
same,Stability results,"[2]; 0.05% in Propylene Glycol, listed as COMPOUND A",Stable
same,Stability results,"[2]; 0.05% in Propylene Glycol, listed as compound A",stable
same,Stability results,"[2]; 0.3% in Dipropylene Glycol Care (Dipropylene Glycol), listed as COMPOUND A",Stable
same,Stability results,"[2]; 0.3% in Dipropylene Glycol Care (Dipropylene Glycol), listed as compound A",stable
same,Stability results,[2]; 0.3% in PEG 400 (Poly Ethylene Glycol),Unstable
same,Recrystallization of COMPOUND A,[3]; formula with ST-Cyclomethicone 5NF 0%,No
same,Recrystallization of COMPOUND A,[3]; formula with ST-Cyclomethicone 5NF 2%,No
same,Recrystallization of COMPOUND A,[3]; formula with ST-Cyclomethicone 5NF 5%,Re-
same,Solubility (in words),[3]; in ST-cyclomethicone 5NF,nonsolvent
